Assay results published in patent US6949356B1, “Methods for improving secondary metabolite production in fungi” (Microbia, Inc., priority 1999, dated 2005).

Test system: S. cerevisiae strain 22409
Assay: Lovastatin resistance test: yeast transformants spotted to SC-URA agar containing different concentrations of lovastatin (FIG. 1)
Format: cell-based, Saccharomyces cerevisiae
Description: These genes are predicted to encode proteins, denoted by Genbank accession numbers AAD34558 (hereafter referred to as PUMP1) and AAD34564 (hereby referred to as PUMP2), that are members of the MFS class of transporters. As described above, some MFS transporters are known to confer resistance to toxic compounds. PUMP1 and PUMP2 were tested for their ability to confer resistance to otherwise toxic levels of lovastatin when expressed in the fungus S. cerevisiae.
The polyA+ fraction of the A. terreus total RNA was isolated using Oligotex beads (Qiagen Inc.). Purified polyA+ RNA (5 μg) was used to generate complementary DNA (cDNA) using Superscript Reverse Transcriptase (Gibco BRL, 9800 Medical Center Drive, PO Box 6482, Rockville, Md. 20849) according to the instructions of the manufacturer. The cDNA was then used to isolate and clone PUMP1 and PUMP2 gene sequences using the polymerase chain reaction (PCR) and Gateway (Life Technologies) Cloning Technology (U.S. Pat. No. 5,888,732). Oligonucleotide sequences used for PCR were 5′-[…]-3′ (SEQ ID NO: 7) and 5′-[…]-3′ (SEQ ID NO: 8) for PUMP1. Oligonucleotide sequences used for PUMP2 PCR were 5′-[…]-3′ (SEQ ID NO: 9) and 5′-[…]-3′ (SEQ ID NO: 10). The resultant plasmids, MB1333 and MB1334, were designed to express PUMP1 and PUMP2, respectively, under control of the S. cerevisiae TEF1 promoter. The plasmids carry a functional URA3 gene to allow for selection of the plasmid on media lacking uracil in a ura3 mutant strain. These plasmids also contained a 2-micron origin for high-copy replication in yeast. […] Environ. Microbiol. 63: 33414 (1997) as pRH127-3, that expresses a soluble form of HMG CoA reductase under control of the yeast GPD1 promoter and is known to confer resistance to increased levels of lovastatin (Donald et al., Appl. Environ. Microbiol. 63: 3341-4 (1997)).
MB1333, MB1334, MB969 and MB1344 were transformed into the yeast strain 22409 (Research Genetics, USA) using standard transformation methods for S. cerevisiae (Biotechniques, 1992, 13(1): 18). Strain 22409 is derived from the S288c strain background of S. cerevisiae, and its complete genotype is as follows: MATa/α, his3Δ1/his3Δ1, leu2Δ1/leu2Δ0, ura3Δ0/ura3Δ0, LYS2/lys2Δ0, MET15/met15Δ0 pdr5::G418/PDR5. Transformants were grown overnight at 30° C. in synthetic complete media lacking uracil (SC-U) to maintain selection for the plasmid. Cultures were diluted 1:10 in sterile water, and 5 μl of each strain was spotted to SC-URA agar containing different concentrations of lovastatin as shown in FIG. 1.

CC[C@H](C)C(=O)O[C@H]1C[C@@H](C)C=C2C=C[C@H](C)[C@H](CC[C@@H]3C[C@@H](O)CC(=O)O3)[C@H]21 [lovastatin]
growth inhibition by lovastatin (positive control strain carrying MB1344 (soluble fragment of HMG CoA reductase overexpressed), highest concentration of lovastatin tested, 150 μg/ml): no obvious growth inhibition
growth inhibition by lovastatin (strain expressing PUMP2 (MB1334), lowest concentration of lovastatin tested, 50 μg/mL): growth inhibition
growth inhibition by lovastatin (strain harboring MB1333 (expressing PUMP1), highest concentration of lovastatin tested, 150 μg/ml): no obvious growth inhibition
growth inhibition by lovastatin (vector-only control strain (MB969), lowest concentration of lovastatin tested, 50 μg/mL): growth inhibition
